Columns and labels:
[1] = molecular target: full-length RORγt in Jurkat cells (Homo sapiens (Human), UniProt P51449); test: RORγt 5×RORE Assay in Jurkat Cells (Assay 2); type: cell-based; settings: RORγt 5×RORE Nanoluc reporter
Experimental: [formula] RORγt 5×RORE Assay in Jurkat Cells (Assay 2)
Compounds described herein were tested for RORγ inverse agonist activity in a cell-based, transcriptional activity assay. […] (Promega, Cat. # N1021) using KpnI and HindIII restriction sites. […] Tested compounds were added to the cells in the same media (final concentration of DMSO was 0.1% (v/v)), and the plates were incubated at 37° C./5% CO2 for 16-18 hrs. Luciferase activity in the conditioned supernatants was determined with NanoGlo® assay reagents (Promega, Cat.# N1130).

[2] = molecular target: recombinant RORγ Ligand Binding Domain (LBD) protein (Homo sapiens (Human), UniProt P51449); test: Radio-Ligand RORγ Binding Assay (Assay 1); settings: radio-ligand 25-hydroxy [26,27-3H]-cholesterol competition
recombinant RORγ Ligand Binding Domain (LBD) protein, sequence (P51449 269-508): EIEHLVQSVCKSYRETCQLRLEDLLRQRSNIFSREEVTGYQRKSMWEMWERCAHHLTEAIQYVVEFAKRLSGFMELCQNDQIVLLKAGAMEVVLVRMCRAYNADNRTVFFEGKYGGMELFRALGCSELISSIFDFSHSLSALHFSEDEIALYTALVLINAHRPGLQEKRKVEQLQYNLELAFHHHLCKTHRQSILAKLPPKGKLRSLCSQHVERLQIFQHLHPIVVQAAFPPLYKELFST
Experimental: Radio-Ligand RORγ Binding Assay (Assay 1)
Compounds described herein were tested for ability to bind to RORγ in a cell-free competition assay with commercially available radio-ligand (RL), 25-hydroxy [26,27-^3H]-cholesterol (PerkinElmer, Cat. # NET674250UC), for a ligand binding site on a recombinant RORγ Ligand Binding Domain (LBD) protein expressed as a 6×His-Glutathione-S-Transferase (GST) fusion. […] The plate was shaken at 700 rpm for 20 min and incubated for 10 min at rt, after which 40 μL of poly-Lys YSi SPA beads (PerkinElmer, Cat. # RPNQ0010) were added to achieve 50 μg of the beads per well. The plate was incubated on an orbital shaker for 20 min and then for 10 min without agitation at rt. SPA signal for tritium beta radiation was registered on PerkinElmer Microbeta plate reader. […] The percent inhibition vs. concentration data were fit into a four-parameter model, and IC50 values were calculated from the fit as the concentrations corresponding to the inflection points on the dose-response curves. […]

full-length RORγt in Jurkat cells, sequence (P51449 other isoform, or with tags, fused parts or gaps): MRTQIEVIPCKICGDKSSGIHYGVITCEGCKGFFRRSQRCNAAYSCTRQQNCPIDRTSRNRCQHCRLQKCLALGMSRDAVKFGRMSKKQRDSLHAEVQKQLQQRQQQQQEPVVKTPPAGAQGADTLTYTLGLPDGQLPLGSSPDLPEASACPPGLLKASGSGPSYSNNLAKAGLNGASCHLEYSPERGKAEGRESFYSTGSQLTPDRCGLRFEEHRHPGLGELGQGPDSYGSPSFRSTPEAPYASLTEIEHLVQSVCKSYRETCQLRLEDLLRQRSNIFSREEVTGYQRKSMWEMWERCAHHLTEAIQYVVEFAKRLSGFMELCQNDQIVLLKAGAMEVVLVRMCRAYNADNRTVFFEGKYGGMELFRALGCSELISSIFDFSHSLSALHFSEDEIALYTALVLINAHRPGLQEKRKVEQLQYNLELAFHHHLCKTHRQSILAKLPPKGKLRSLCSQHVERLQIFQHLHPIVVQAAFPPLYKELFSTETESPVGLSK

Row | IC50 [1] [nM] | Ki [2] [nM] | Molecule
1 | < 100 | < 100 | CCS(=O)(=O)c1ccc([C@H](CO)NC(=O)c2ccc3c(c2)nc(Oc2ccc(C(F)(F)F)cc2)n3C2CC2)cc1 [BE-7, (R)-1-cyclopropyl-N-(1-(4-(ethylsulfonyl)phenyl)-2-hydroxyethyl)-2-(4-(trifluoromethyl)phenoxy)-1H-benzo[d]imidazole-5-carboxamide]
2 | < 100 | < 100 | CCS(=O)(=O)c1ccc(CNC(=O)c2ccc3c(c2)cc(CN2CCC(C(F)(F)F)CC2)n3C2CC2)cc1 [IN-12, 1-cyclopropyl-N-(4-(ethylsulfonyl)benzyl)-2-((4-(trifluoromethyl)piperidin-1-yl)methyl)-1H-indole-5-carboxamide]
3 | > 1000 | < 100 | CCS(=O)(=O)c1ccc(CNC(=O)c2ccc3c(c2)nc(Cc2ccc(Cl)cn2)n3C2CC2)cc1 [BE-52, 2-((5-chloropyridin-2-yl)methyl)-1-cyclopropyl-N-(4-(ethylsulfonyl)benzyl)-1H-benzo[d]imidazole-5-carboxamide]
4 | < 100 | < 100 | CCn1c(OCc2ccc(C(F)(F)F)cc2)nc2cc(C(=O)N[C@@H](CO)c3ccc(S(=O)(=O)CC)cc3)ccc21 [BE-14, (R)-1-ethyl-N-(1-(4-(ethylsulfonyl)phenyl)-2-hydroxyethyl)-2-((4-(trifluoromethyl)benzyl)oxy)-1H-benzo[d]imidazole-5-carboxamide]
5 | < 100 | < 100 | CCS(=O)(=O)c1ccc([C@H](CO)NC(=O)c2ccc3c(c2)nc(CN2CCC(C(F)(F)F)CC2)n3C2CC2)cc1 [BE-54, (R)-1-cyclopropyl-N-(1-(4-(ethylsulfonyl)phenyl)-2-hydroxyethyl)-2-((4-(trifluoromethyl)piperidin-1-yl)methyl)-1H-benzo[d]imidazole-5-carboxamide]
6 | 100 to 1000 | < 100 | CCS(=O)(=O)c1ccc(CNC(=O)c2ccc3c(c2)nc(CC2CCN(C(=O)OC(C)(C)C)CC2)n3C2CC2)cc1 [BE-49, tert-butyl 4-((1-cyclopropyl-5-((4-(ethylsulfonyl)benzyl)carbamoyl)-1H-benzo[d]imidazol-2-yl)methyl)piperidine-1-carboxylate]
7 | < 100 | < 100 | CCS(=O)(=O)c1ccc(CNC(=O)c2ccc3c(c2)cc(Cc2ccc(C(F)(F)F)cc2)n3C2CC2)cc1 [IN-18, 1-cyclopropyl-N-(4-(ethylsulfonyl)benzyl)-2-(4-(trifluoromethyl)benzyl)-1H-indole-5-carboxamide]
8 | > 1000 | < 100 | CCn1c(OCC2CCC(F)(F)CC2)nc2cc(C(=O)N[C@@H](CO)c3ccc(S(=O)(=O)CC)cc3)ccc21 [BE-12, (R)-2-((4,4-difluorocyclohexyl)methoxy)-1-ethyl-N-(1-(4-(ethylsulfonyl)phenyl)-2-hydroxyethyl)-1H-benzo[d]imidazole-5-carboxamide]
9 | < 100 | < 100 | CCS(=O)(=O)c1ccc([C@H](CO)NC(=O)c2ccc3c(c2)nc(CO[C@H]2CC[C@H](C(F)(F)F)CC2)n3C2CC2)cc1 (single isomer, unassigned) [BE-71.2]
10 | < 100 | < 100 | CCn1c(Oc2ccc(OC(F)(F)F)cc2)nc2cc(C(=O)N[C@@H](CO)c3ccc(S(=O)(=O)CC)cc3)ccc21 [BE-9, (R)-1-ethyl-N-(1-(4-(ethylsulfonyl)phenyl)-2-hydroxyethyl)-2-(4-(trifluoromethoxy)phenoxy)-1H-benzo[d]imidazole-5-carboxamide]
11 | < 100 | < 100 | CCS(=O)(=O)c1ccc([C@H](CO)NC(=O)c2ccc3c(c2)cc(Cc2ccc(C(F)(F)F)cc2)n3C2CC2)nc1 [IN-19, (R)-1-cyclopropyl-N-(1-(5-(ethylsulfonyl)pyridin-2-yl)-2-hydroxyethyl)-2-(4-(trifluoromethyl)benzyl)-1H-indole-5-carboxamide]
12 | > 1000 | < 100 | CCn1c(OCC2CC(F)(F)C2)nc2cc(C(=O)N[C@@H](CO)c3ccc(S(=O)(=O)CC)cc3)ccc21 [BE-13, (R)-2-((3,3-difluorocyclobutyl)methoxy)-1-ethyl-N-(1-(4-(ethylsulfonyl)phenyl)-2-hydroxyethyl)-1H-benzo[d]imidazole-5-carboxamide]
13 | < 100 | < 100 | CCS(=O)(=O)c1ccc([C@H](CO)NC(=O)c2ccc3c(c2)nc(OCC2CCC(F)(F)CC2)n3C2CC2)cc1 [BE-16, (R)-1-cyclopropyl-2-((4,4-difluorocyclohexyl)methoxy)-N-(1-(4-(ethylsulfonyl)phenyl)-2-hydroxyethyl)-1H-benzo[d]imidazole-5-carboxamide]
14 | < 100 | < 100 | CCS(=O)(=O)c1ccc([C@H](CO)NC(=O)c2ccc3c(c2)nc(Cc2ccc(OC(F)(F)F)cc2)n3C2CC2)cc1 [BE-47, (R)-1-cyclopropyl-N-(1-(4-(ethylsulfonyl)phenyl)-2-hydroxyethyl)-2-(4-(trifluoromethoxy)benzyl)-1H-benzo[d]imidazole-5-carboxamide]
15 | > 1000 | < 100 | CCS(=O)(=O)c1ccc(CNC(=O)c2ccc3c(c2)nc(O[C@H]2CC[C@@H](C(F)(F)F)CC2)n3CC(C)C)cc1 [BE-4.2, N-(4-(ethylsulfonyl)benzyl)-1-isobutyl-2-(((1s,4s)-4-(trifluoromethyl)cyclohexyl)oxy)-1H-benzo[d]imidazole-5-carboxamide]
16 | < 100 | < 100 | CCS(=O)(=O)c1ccc(CNC(=O)c2ccc3c(c2)nc(Cc2ccc(C(F)(F)F)cc2)n3C2CC2)cc1 [BE-36, 1-cyclopropyl-N-(4-(ethylsulfonyl)benzyl)-2-(4-(trifluoromethyl)benzyl)-1H-benzo[d]imidazole-5-carboxamide]

Row | Molecule | IC50 [1] [nM] | Ki [2] [nM]
17 | 1-ethyl-N-((5-(ethylsulfonyl)pyridin-2-yl)methyl)-2-(((1s,4s)-4-(trifluoromethyl)cyclohexyl)methyl)-1H-indole-5-carboxamide [IN-15.2] | > 1000 | < 100
18 | CCn1c(C[C@H]2CC[C@H](C(F)(F)F)CC2)cc2cc(C(=O)NCc3ccc(S(=O)(=O)CC)cn3)ccc21 [IN-15.1, 1-ethyl-N-((5-(ethylsulfonyl)pyridin-2-yl)methyl)-2-(((1r,4r)-4-(trifluoromethyl)cyclohexyl)methyl)-1H-indole-5-carboxamide] | < 100 | < 100
19 | CCS(=O)(=O)c1ccc(CNC(=O)c2cnc3c(c2)cc(C[C@H]2CC[C@H](C(F)(F)F)CC2)n3C2CC2)cc1 [AI-1, 1-cyclopropyl-N-(4-(ethylsulfonyl)benzyl)-2-(((1r,4r)-4-(trifluoromethyl)cyclohexyl)methyl)-1H-pyrrolo[2,3-b]pyridine-5-carboxamide] | < 100 | < 100
20 | CCS(=O)(=O)c1ccc(CNC(=O)c2ccc3c(c2)nc(C[C@H]2CC[C@@H](C(F)(F)F)CC2)n3CC(C)C)nc1 [BE-26.2, N-((5-(ethylsulfonyl)pyridin-2-yl)methyl)-1-isobutyl-2-(((1s,4s)-4-(trifluoromethyl)cyclohexyl)methyl)-1H-benzo[d]imidazole-5-carboxamide] | > 1000 | < 100
21 | CCS(=O)(=O)c1ccc(CNC(=O)c2ccc3c(c2)nc(C[C@H]2CC[C@H](C(F)(F)F)CC2)n3C2CC2)nc1 [BE-27.1, 1-cyclopropyl-N-((5-(ethylsulfoyl)pyridin-2-yl)methyl)-2-(((1r,4r)-4-(trifluoromethyl)cyclohexyl)methyl)-1H-benzo[d]imidazole-5-carboxamide] | < 100 | < 100
22 | CCS(=O)(=O)c1ccc(CNC(=O)c2cnc3c(c2)nc(C[C@H]2CC[C@@H](C(F)(F)F)CC2)n3C2CC2)cc1 [AB-1.2, 3-cyclopropyl-N-(4-(ethylsulfonyl)benzyl)-2-(((1s,4s)-4-(trifluoromethyl)cyclohexyl)methyl)-3H-imidazo[4,5-b]pyridine-6-carboxamide] | > 1000 | < 100
23 | CCn1c(C[C@H]2CC[C@H](C(F)(F)F)CC2)nc2cc(C(=O)NCc3ccc(S(=O)(=O)CC)cc3)ccc21 [BE-20, 1-ethyl-N-(4-(ethylsulfonyl)benzyl)-2-(((1r,4r)-4-(trifluoromethyl)cyclohexyl)methyl)-1H-benzo[d]imidazole-5-carboxamide] | < 100 | < 100
24 | CCS(=O)(=O)c1ccc(CNC(=O)c2ccc3c(c2)nc(C[C@H]2CC[C@@H](C(F)(F)F)CC2)n3C2CC2)nc1 [BE-27.2, 1-cyclopropyl-N-((5-(ethylsulfonyl)pyridin-2-yl)methyl)-2-(((1s,4s)-4-(trifluoromethyl)cyclohexyl)methyl)-1H-benzo[d]imidazole-5-carboxamide] | > 1000 | < 100
25 | 1-ethyl-N-(4-(ethylsulfonyl)benzyl)-2-(((1s,4s)-4-(trifluoromethyl)cyclohexyl)methyl)-1H-indole-5-carboxamide [IN-17.2] | > 1000 | < 100

Source: patent US10301261B2, “Substituted indoles as modulators of ROR-gamma” (Vitae Pharmaceuticals, LLC, priority 2015, dated 2019)
